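Results reflect a 48-hour exposure of cells in 96-well plates to compound at five concentrations. At the GI50, growth is halved.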 Activity calls are given as the source filed them. Rule as the data show it: active = GI50 up to about 1.1 µM and inactive = higher.
How the values were obtained:
Assay in all cases: NCI anticancer screen, dose series, 48 h
ACHN = test system: ACHN
HOP-92 = test system: HOP-92
KM12 = test system: KM12
LOX IMVI = test system: LOX IMVI
MCF7 = test system: MCF7
MDA-MB-231 = test system: MDA-MB-231
MDA-N = test system: MDA-N
Malme-3M = test system: Malme-3M
NCI-H226 = test system: NCI-H226
NCI-H23 = test system: NCI-H23
NCI-H460 = test system: NCI-H460
OVCAR-3 = test system: OVCAR-3
SF-268 = test system: SF-268
SK-MEL-5 = test system: SK-MEL-5
SNB-19 = test system: SNB-19
SR = test system: SR
SW-620 = test system: SW-620
T47D = test system: T47D
TK-10 = test system: TK-10
UACC-62 = test system: UACC-62

SMILES	GI50 (ACHN)	GI50 (HOP-92)	GI50 (KM12)	GI50 (LOX IMVI)	GI50 (MCF7)	GI50 (MDA-MB-231)	GI50 (MDA-N)	GI50 (Malme-3M)	GI50 (NCI-H226)	GI50 (NCI-H23)	GI50 (NCI-H460)	GI50 (OVCAR-3)	GI50 (SF-268)	GI50 (SK-MEL-5)	GI50 (SNB-19)	GI50 (SR)	GI50 (SW-620)	GI50 (T47D)	GI50 (TK-10)	GI50 (UACC-62)
COc1cc(C2C3=C(COC3=O)Oc3cc4c(cc32)OCO4)cc(OC)c1OC (stereo not given)	< 0.0326 µM (active)	0.0161 µM (active)	0.0112 µM (active)	< 0.0164 µM (active)	0.0423 µM (active)	0.0667 µM (active)	0.0219 µM (active)	0.0828 µM (active)	0.123 µM (active)	0.0441 µM (active)	0.0216 µM (active)	0.025 µM (active)	0.0417 µM (active)	0.0198 µM (active)	0.034 µM (active)	0.0424 µM (active)	0.0173 µM (active)	> 10 µM (inactive)	> 10 µM (inactive)	0.0166 µM (active)
CCCCCCCCCC1CC(=O)NCC(=O)NC(C(C)C)C(=O)NC(CC(C)C)C(=O)NC(C)C(=O)NC(C(C)C)C(=O)O1 (stereo not given)	> 79.8 µM (inactive)	15.5 µM (inactive)	6.79 µM (inactive)	7.96 µM (inactive)	17.8 µM (inactive)	10.2 µM (inactive)	17.1 µM (inactive)	22.6 µM (inactive)	36.6 µM (inactive)	13.6 µM (inactive)	5.38 µM (inactive)	9.59 µM (inactive)	4.55 µM (inactive)	17.3 µM (inactive)	18.7 µM (inactive)	13.3 µM (inactive)	3.84 µM (inactive)	20.5 µM (inactive)	24.3 µM (inactive)	25.1 µM (inactive)
Cc1cc(C)nc(NS(=O)(=O)c2ccc(NC(=O)c3ccc4nc5ccccc5c(Nc5ccc(S(=O)(=O)N=C(N)N)cc5)c4c3)cc2)n1	> 100 µM (inactive)	32.4 µM (inactive)	> 100 µM (inactive)	> 100 µM (inactive)	> 100 µM (inactive)	> 100 µM (inactive)	> 100 µM (inactive)	> 100 µM (inactive)	> 100 µM (inactive)	> 100 µM (inactive)	> 100 µM (inactive)	> 100 µM (inactive)	> 100 µM (inactive)	> 100 µM (inactive)	> 100 µM (inactive)	> 100 µM (inactive)	> 100 µM (inactive)	> 100 µM (inactive)	> 100 µM (inactive)	> 100 µM (inactive)
COC(=O)c1cc2c(cc1O)[C@@H](NC(C)=O)CCc1cc(OC)c(OC)c(OC)c1-2	0.111 µM (active)	0.0647 µM (active)	0.0283 µM (active)	0.0501 µM (active)	< 0.01 µM (active)	0.0923 µM (active)	0.0277 µM (active)	0.0243 µM (active)	0.023 µM (active)	0.0296 µM (active)	0.0528 µM (active)	0.0518 µM (active)	0.0792 µM (active)	0.0235 µM (active)	0.101 µM (active)	0.055 µM (active)	0.108 µM (active)	> 10 µM (inactive)	> 10 µM (inactive)	0.0692 µM (active)
CCOP(=O)(C[S+](C)[O-])O[C@@H]1C[C@H](C)CC[C@H]1C(C)C (stereo not given in full)	4.43 µM (inactive)	3.97 µM (inactive)	3.14 µM (inactive)	1.77 µM (inactive)	3.08 µM (inactive)	3.03 µM (inactive)	2.86 µM (inactive)	11 µM (inactive)	3.92 µM (inactive)	4.13 µM (inactive)	4.5 µM (inactive)	4.44 µM (inactive)	6.44 µM (inactive)	2.25 µM (inactive)	12.2 µM (inactive)	3.07 µM (inactive)	3.72 µM (inactive)	4.6 µM (inactive)	3.63 µM (inactive)	2.17 µM (inactive)
